# Measurements as given in patent US9062045B2, “Triazolopyridine compounds” (Novartis AG, priority 2012, dated 2015).
# Where two headings read alike, the source gives them in different places.
# Columns and labels:
# [1] = target: c-Met receptor tyrosine kinase, GST-c-MET (969-1390) (Homo sapiens (Human), UniProt P08581); conditions: read-out: c-Met Biochem IC50; 2 μM ATP, 60 minutes at room temperature
# Description: A number of compounds of the present invention were assayed in an antibody based kinase phosphorylation assay as follows.
# The EPK kinase assay for c-Met receptor tyrosine kinase was developed, using the purified recombinant GST-fusion protein, containing the cytoplasmic domain of the enzyme.
# The kinase assay is based on the LanthaScreen™ technology.
# The kinase reactions were performed in 384 well microtiter plates in a total reaction volume of 10.05 μL. The assay plates were prepared with 0.05 μL per well of test compound in the appropriate test concentration, as described under “preparation of compound dilutions”. The reactions were started by combining 5 μL of ATP solution with 5 μL of enzyme-substrate mix (consisting of kinase and substrate). […] Subsequently 5 μL of detection mix (50 mM Tris/HCl, 2 mM DTT, 0.05% Tween20, 20 μM sodium orthovanadate, 1% BSA, 1 nM Tb-PY20 antibody) were added to the stopped reactions. After 45 minutes incubation in dark at room temperature, the plates were measured in a Perkinelmer Envision fluorescence reader.
# [2] = hPDE3 assay ([3H]cAMP scintillation proximity assay); assay type: biochemical, human; conditions: Table 3-C; title says PDE3, head says c-Met Biochem IC50 [nM]
# GTL16 cells = assay: GTL16 cell viability assay (CellTiter Glo); conditions: read-out: GTL-16 Proliferation IC50; GTL16 cells, 24 hours
# Description: GTL16 Cell Viability Assay:
# GTL16 expresses high level of c-Met receptor tyrosine kinase due to the gene amplification.
# GTL16 cells were seeded in DMEM medium with 10% FBS and 1% Pene. & Strep. at 5000 cells/well/90 μL in 96 well plate and incubated overnight for attachment at 37° C. in 5% CO2 incubator. 10-fold serials dilutions of compounds were added to the cell as 10 μL/well. The final assay volume was 100 μl/well. The assay plates were incubated at 37° C. in 5% CO2 incubator for 24 hours. […] The chemiluminescent light unit was read in Envision from Perkin Elmer. All the tests were run at triplicates. The IC50 was calculated using Spotfire software.
# [3] = cited from earlier work
# [4] = dog S-9 incubations; cited from earlier work
# [5] = patients treated with SGX523; cited from earlier work
# [6] = human liver S-9; cited from earlier work
# [7] = monkey liver S-9; cited from earlier work
# Chain of c-Met receptor tyrosine kinase, GST-c-MET (969-1390) (P08581 969-1390): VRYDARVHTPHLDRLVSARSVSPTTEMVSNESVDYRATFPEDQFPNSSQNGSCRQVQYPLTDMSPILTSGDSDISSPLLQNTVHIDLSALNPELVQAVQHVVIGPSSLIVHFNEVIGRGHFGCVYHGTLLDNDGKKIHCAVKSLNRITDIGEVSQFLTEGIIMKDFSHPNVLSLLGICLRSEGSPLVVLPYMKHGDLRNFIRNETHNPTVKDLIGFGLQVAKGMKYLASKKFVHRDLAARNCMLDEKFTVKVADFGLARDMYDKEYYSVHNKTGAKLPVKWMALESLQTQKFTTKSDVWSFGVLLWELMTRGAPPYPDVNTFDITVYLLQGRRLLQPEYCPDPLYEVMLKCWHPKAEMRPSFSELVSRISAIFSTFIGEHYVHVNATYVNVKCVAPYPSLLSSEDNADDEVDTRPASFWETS
structure (smiles),measurement,setting,value
"Cn1cc(-c2ccc3nnc(C(F)(F)c4ccc5ncccc5c4)n3n2)cn1 [Comparator No. 1 (JNJ-38877605), 6-{Difluoro-[6-(1-methyl-1H-pyrazol-4-yl)-[1,2,4]triazolo[4,3-b]pyridazin-3-yl]-methyl}-quinoline, reference compound]",IC50,[1],3 nM
same,IC50,[2],4 nM
same,IC50,GTL16 cells,< 10 nM
"Cn1cc(-c2ccc3nnc(Sc4ccc5[nH]c(=O)ccc5c4)n3n2)cn1 [2-quinolinone-SGX523 metabolite, 6-(6-(1-methyl-1H-pyrazol-4-yl)-[1,2,4]triazolo[4,3-b]pyridazin-3-ylthio)quinolin-2(1H)-one]",solubility compared with SGX523,[3],markedly less-soluble
"Cn1cc(-c2ccc3nnc(Sc4ccc5ncccc5c4)n3n2)cn1 [Comparator No. 4 (SGX523), 6-[6-(1-Methyl-1H-pyrazol-4-yl)-[1,2,4]triazolo[4,3-b]pyridazin-3-ylsulfanyl]-quinoline]",generation of metabolite M11,[4],absent
same,renal function of patients,[5],compromised renal function
same,generation of metabolite M11,[6],generated
same,generation of metabolite M11,[7],generated
